Viability data for 45 compounds are collected here from PMC11995724, “Antibiotic target discovery by integrated phenotypic and activity-based profiling of electrophilic fragments” (Cell chemical biology, 2025).

SMILES strings stand for the structures.

This data set is described as follows: in vitro. The following applies: human, hek293t cells.
As a reminder, the viability is a read-out of living cells in per cent, often relative to untreated cells. Regarding `N#CC(=Cc1c[nH]c2ccccc12)C(=O)Nc1cccc2ncccc12` [9-N08, 2-cyano-3-(1H-indol-3-yl)-N-(quinolin-5-yl)prop-2-enamide], the viability at 48 h, 25 µM stood at 101%.

As for `Cc1cc(CNC(=O)C(C#N)=Cc2ccco2)ccc1N(C)C` [9-N09, 2-cyano-N-{[4-(dimethylamino)-3-methylphenyl]methyl}-3-(furan-2-yl)prop-2-enamide], the viability at 48 h, 25 µM is 113%.

`N#CC(=Cc1ccc(O)cc1)C(=O)NCc1ccco1` [9-N10, 2-cyano-N-[(furan-2-yl)methyl]-3-(4-hydroxyphenyl)prop-2-enamide]: the viability at 48 h, 25 µM turned out to be 103%.

For `N#CC(=Cc1ccc2ccccc2c1)C(=O)NCc1ccccc1` [9-N11, N-benzyl-2-cyano-3-(naphthalen-2-yl)prop-2-enamide], the viability at 48 h, 25 µM came to 123%.

As for `COc1cc(C=C(C#N)C(=O)NC(C)C)sn1` [9-N12, 2-cyano-3-(3-methoxy-1,2-thiazol-5-yl)-N-(propan-2-yl)prop-2-enamide], the viability at 48 h, 25 µM was found to be 115%.

As to `Cc1ccc(C)c(C=C(C#N)C(=O)Nc2nccs2)c1` [9-N13, 2-cyano-3-(2,5-dimethylphenyl)-N-(1,3-thiazol-2-yl)prop-2-enamide], the viability at 48 h, 25 µM was determined as 126%.

In the case of `CCCNC(=O)C(C#N)=Cc1cnc2c(C)cccn12` [9-N14, 2-cyano-3-{8-methylimidazo[1,2-a]pyridin-3-yl}-N-propylprop-2-enamide], the viability at 48 h, 25 µM worked out at 120%.

Regarding `Cc1c(C=C(C#N)C(=O)Nc2cnc3ccccc3c2)cc(C#N)n1C` [9-N15, 2-cyano-3-(5-cyano-1,2-dimethyl-1H-pyrrol-3-yl)-N-(quinolin-3-yl)prop-2-enamide], the viability at 48 h, 25 µM was 111%.

With `COc1ccc(-n2c(C)cc(C=C(C#N)C(=O)N(C)OC)c2C)cc1` [9-N16, 2-cyano-N-methoxy-3-[1-(4-methoxyphenyl)-2,5-dimethyl-1H-pyrrol-3-yl]-N-methylprop-2-enamide], the viability at 48 h, 25 µM turned out to be 88.4%.

On to `N#CC(=Cc1cccc(F)c1)C(=O)Nc1ccc(SC(F)F)cc1` [9-N17, 2-cyano-N-{4-[(difluoromethyl)sulfanyl]phenyl}-3-(3-fluorophenyl)prop-2-enamide], for which the viability at 48 h, 25 µM was 103%.

As to `N#CC(=Cc1csc(-c2ccsc2)n1)C(=O)NC1CC1` [9-N18, 2-cyano-N-cyclopropyl-3-[2-(thiophen-3-yl)-1,3-thiazol-4-yl]prop-2-enamide], the viability at 48 h, 25 µM was found to be 110%.

Regarding `Cc1cn2c(C=C(C#N)C(=O)Nc3c(C)cccc3C)c(C)nc2s1` [9-N19, 2-cyano-3-{2,6-dimethylimidazo[2,1-b][1,3]thiazol-5-yl}-N-(2,6-dimethylphenyl)prop-2-enamide], the viability at 48 h, 25 µM turned out to be 94.4%.

Consider `CC(C)Oc1ccccc1C=C(C#N)C(=O)Nc1ccccc1Cl` [9-N20, N-(2-chlorophenyl)-2-cyano-3-[2-(propan-2-yloxy)phenyl]prop-2-enamide], for which the viability at 48 h, 25 µM was 104%.

In the case of `Cc1ccc(C=C(C#N)C(=O)Nc2c(Cl)cccc2Cl)o1` [9-N21, 2-cyano-N-(2,6-dichlorophenyl)-3-(5-methylfuran-2-yl)prop-2-enamide], the viability at 48 h, 25 µM worked out at 108%.

For the compound `N#C/C(C(=O)Nc1ccc(C(F)(F)F)cc1)=C(/O)C1CC1` [9-N22, (2Z)-2-cyano-3-cyclopropyl-3-hydroxy-N-[4-(trifluoromethyl)phenyl]prop-2-enamide], the viability at 48 h, 25 µM was determined as 82.6%.

As for `N#CC(=Cc1cccc2ccccc12)C(=O)NC1CC1` [9-O03, 2-cyano-N-cyclopropyl-3-(naphthalen-1-yl)prop-2-enamide], the viability at 48 h, 25 µM came to 116%.

Take `CN(C)c1ccc(C=C(C#N)C(N)=O)cc1` [9-O04, 2-cyano-3-[4-(dimethylamino)phenyl]prop-2-enamide]: the viability at 48 h, 25 µM was 118%.

Consider `N#CC(=Cc1ccsc1)C(=O)Nc1ccccc1Cl` [9-O05, N-(2-chlorophenyl)-2-cyano-3-(thiophen-3-yl)prop-2-enamide], for which the viability at 48 h, 25 µM came out at 150%.

For `CCNC(=O)C(C#N)=Cc1c(N2CCOCC2)nc2ccccn2c1=O` [9-O06, 2-cyano-N-ethyl-3-[2-(morpholin-4-yl)-4-oxo-4H-pyrido[1,2-a]pyrimidin-3-yl]prop-2-enamide], the viability at 48 h, 25 µM stood at 137%.

Take `CCCCNC(=O)C(C#N)=Cc1ccc(Cl)cc1Cl` [9-O07, N-butyl-2-cyano-3-(2,4-dichlorophenyl)prop-2-enamide]: the viability at 48 h, 25 µM stood at 69%.

`N#CC(=Cc1cc2ccccc2o1)C(=O)NCc1ccco1` [9-O08, 3-(1-benzofuran-2-yl)-2-cyano-N-[(furan-2-yl)methyl]prop-2-enamide]: the viability at 48 h, 25 µM amounted to 114%.

For the compound `CCCCNC(=O)C(C#N)=Cc1c(Cl)nc2ccccn12` [9-O09, N-butyl-3-{2-chloroimidazo[1,2-a]pyridin-3-yl}-2-cyanoprop-2-enamide], the viability at 48 h, 25 µM came to 129%.

In the case of `N#CC(=Cc1ccc(N2CCOCC2)cc1)C(=O)NCC1CCCO1` (stereo not drawn) [9-O10, 2-cyano-3-[4-(morpholin-4-yl)phenyl]-N-[(oxolan-2-yl)methyl]prop-2-enamide], the viability at 48 h, 25 µM was determined as 120%.

As for `Cc1ccc(C=C(C#N)C(=O)NC(C)C)s1` [9-O11, 2-cyano-3-(5-methylthiophen-2-yl)-N-(propan-2-yl)prop-2-enamide], the viability at 48 h, 25 µM came to 139%.

Consider `COc1ccc(C=C(C#N)C(=O)Nc2ccc(C)cc2)cc1O` [9-O12, 2-cyano-3-(3-hydroxy-4-methoxyphenyl)-N-(4-methylphenyl)prop-2-enamide], for which the viability at 48 h, 25 µM was 109%.

With `CC1=C(C#N)C(=O)N(C2CCS(=O)(=O)C2)C(=O)C1=Cc1ccco1` (stereo not drawn) [9-O13, 1-(1,1-dioxo-1lambda6-thiolan-3-yl)-5-[(furan-2-yl)methylidene]-4-methyl-2,6-dioxo-1,2,5,6-tetrahydropyridine-3-carbonitrile], the viability at 48 h, 25 µM came to 99%.

With `N#CC(=Cc1cnn(Cc2ccccc2)c1)C(=O)NC1CCCC1` [9-O14, 3-(1-benzyl-1H-pyrazol-4-yl)-2-cyano-N-cyclopentylprop-2-enamide], the viability at 48 h, 25 µM was 80.2%.

As to `CCc1cccc(CC)c1NC(=O)C(C#N)=Cc1ccc(C#N)cc1` [9-O15, 2-cyano-3-(4-cyanophenyl)-N-(2,6-diethylphenyl)prop-2-enamide], the viability at 48 h, 25 µM was 36.5%.

Consider `N#CC(=Cc1cccc(O)c1)C(=O)Nc1ccccc1C(=O)O` [9-O16, 2-[2-cyano-3-(3-hydroxyphenyl)prop-2-enamido]benzoic acid], for which the viability at 48 h, 25 µM came out at 125%.

Regarding `N#CC(=Cc1ccc(C#N)cc1)C(=O)Nc1ccccc1Cl` [9-O17, N-(2-chlorophenyl)-2-cyano-3-(4-cyanophenyl)prop-2-enamide], the viability at 48 h, 25 µM was 131%.

Take `Cc1cccc(NC(=O)C(C#N)=Cc2cnc3ccc(C#N)cn23)c1` [9-O18, 2-cyano-3-{6-cyanoimidazo[1,2-a]pyridin-3-yl}-N-(3-methylphenyl)prop-2-enamide]: the viability at 48 h, 25 µM was 132%.

Regarding `COc1cc(C=C(C#N)C(=O)NC2CC2)cc(OC)c1O` [9-O19, 2-cyano-N-cyclopropyl-3-(4-hydroxy-3,5-dimethoxyphenyl)prop-2-enamide], the viability at 48 h, 25 µM amounted to 124%.

With `N#CC(=Cc1ccccc1[N+](=O)[O-])C(=O)Nc1ccc2c(c1)OCCO2` [9-O20, 2-cyano-N-(2,3-dihydro-1,4-benzodioxin-6-yl)-3-(2-nitrophenyl)prop-2-enamide], the viability at 48 h, 25 µM came to 108%.

For `Cc1ccc(-n2c(C)cc(C=C(C#N)C(=O)N3CCCCC3)c2C)cc1` [9-O21, 3-[2,5-dimethyl-1-(4-methylphenyl)-1H-pyrrol-3-yl]-2-(piperidine-1-carbonyl)prop-2-enenitrile], the viability at 48 h, 25 µM stood at 87.8%.

`Cc1ccc(C)c(C=C(C#N)C(=O)NC(C)C)c1` [9-O22, 2-cyano-3-(2,5-dimethylphenyl)-N-(propan-2-yl)prop-2-enamide]: the viability at 48 h, 25 µM stood at 125%.

Take `N#CC(=Cc1cccc(F)c1)C(=O)Nc1cc(Cl)ccc1Cl` [9-P03, 2-cyano-N-(2,5-dichlorophenyl)-3-(3-fluorophenyl)prop-2-enamide]: the viability at 48 h, 25 µM was 109%.

Turning to `Cc1cc(C=C(C#N)C(=O)N2CC[C@H](O)C2)c(C)n1CC1CCCO1` (stereo partly drawn) [9-P04, 3-{2,5-dimethyl-1-[(oxolan-2-yl)methyl]-1H-pyrrol-3-yl}-2-[(3S)-3-hydroxypyrrolidine-1-carbonyl]prop-2-enenitrile], the viability at 48 h, 25 µM was 131%.

For `CCOc1ccccc1NC(=O)C(C#N)=Cc1ccc2c(c1)OCO2` [9-P05, 3-(1,3-dioxaindan-5-yl)-2-cyano-N-(2-ethoxyphenyl)prop-2-enamide], the viability at 48 h, 25 µM stood at 136%.

For `N#CC(=Cc1c(F)cccc1Cl)C(=O)Nc1ccc(C(=O)O)cc1` [9-P06, 4-[3-(2-chloro-6-fluorophenyl)-2-cyanoprop-2-enamido]benzoic acid], the viability at 48 h, 25 µM was determined as 142%.

With `C=CCNC(=O)C(C#N)=Cc1sccc1C` [9-P07, 2-cyano-3-(3-methylthiophen-2-yl)-N-(prop-2-en-1-yl)prop-2-enamide], the viability at 48 h, 25 µM came out at 117%.

For `COc1cc(C=C(C#N)C(=O)Nc2ccccn2)ccc1O` [9-P08, 2-cyano-3-(4-hydroxy-3-methoxyphenyl)-N-(pyridin-2-yl)prop-2-enamide], the viability at 48 h, 25 µM turned out to be 124%.

In the case of `CCN1C(=O)C(=Cc2ccc(-c3ccc(F)cc3)o2)C(C)=C(C#N)C1=O` [9-P09, 1-ethyl-5-{[5-(4-fluorophenyl)furan-2-yl]methylidene}-4-methyl-2,6-dioxo-1,2,5,6-tetrahydropyridine-3-carbonitrile], the viability at 48 h, 25 µM amounted to 127%.

For `Cc1ccc(C=C(C#N)C(=O)Nc2nccs2)o1` [9-P10, 2-cyano-3-(5-methylfuran-2-yl)-N-(1,3-thiazol-2-yl)prop-2-enamide], the viability at 48 h, 25 µM worked out at 126%.

Take `Cc1ccccc1NC(=O)C(C#N)=Cc1cc2c(cc1[N+](=O)[O-])OCO2` [9-P11, 2-cyano-N-(2-methylphenyl)-3-(6-nitro-1,3-dioxaindan-5-yl)prop-2-enamide]: the viability at 48 h, 25 µM was determined as 120%.

In the case of `COC(=O)c1ccc(C=C(C#N)C(=O)NC(C)C)n1C` [9-P12, methyl 5-{2-cyano-2-[(propan-2-yl)carbamoyl]eth-1-en-1-yl}-1-methyl-1H-pyrrole-2-carboxylate], the viability at 48 h, 25 µM is 115%.
